Assay results published in patent US5948786A, “Piperidinylpyrimidine derivatives” (Sumitomo Pharmaceuticals Company, Limited, priority 1996, dated 1999).

These compounds were tested on TNF α production from mouse macrophages (assay: Inhibitory activity of compound on TNF α Production from mouse macrophages (LPS-induced PEC's)). Conditions: Macrophage, LPS 10 μg/ml, 18 hours.
Format: cell-based
Protocol: BALB/c mice (female, 5-7 weeks old, Charles River Japan, Tokyo, Japan) were injected i.p. with 1 ml of 2.4% thioglycollate broth. After 4 days, the mice were sacrificed. Peritoneal exudated cells (PEC's) were collected from the peritoneal cavity by washing with minimum essential medium (MEM, Handai biseibutubyou kenkyukai, Osaka, Japan) containing 5 U/ml heparin, 1% fetal bovine serum (FBS, Filtron, Victoria, Australia) and antibiotics. The cells were washed two times with MEM, suspended with MEM containing 10% FBS (complete MEM, cMEM) and seeded into 96-well culture plates (Costar, Cambridge, Mass., USA) at 2×10^5 cells/well. The cells were incubated for 1 hour at 37° C. in a humidified 5% CO2 incubator and washed two times to remove non-adherent cells.
TNF α was induced by 10 μg/ml of LPS (E. coli O111B4, DIFCO, Detroit, Mich., USA) the cells were cultured for 18 hours at 37° C. A compound of the present invention was dissolved in DMSO and added to the culture simultaneously with LPS. The final DMSO concentration was below 0.1%. The TNF α concentration in supernatant and recombinant mouse TNF α standard (rm-TNF α, Genzyme, Mass., USA) were incubated overnight at 4° C. in a 96-well plate coated with anti-mouse TNF α monoclonal antibody (PharMingen, San Diego, Calif., USA) that previously had been blocked with 10% FBS. Each well of the plate first was incubated at room temperature with biotinylated anti-mouse TNF α polyclonal antibodies (PharMingen) for 45 minutes, then with peroxidase-conjugated streptavidin (Kirkegaard & Perry Laboratories Inc., Gaitherburg, Md., USA) for 30 minutes. After each incubation, the plate was washed 4 to 8 times with PBS containing 0.2% Tween 20. TMB (Kirkegaard & Perry Laboratories Inc.) was the peroxidase substrate used and, the absorbance of each well was quantified at 450 nm by a microplatereader (Molecular Devices Corp., CA, USA). TNF α levels in the supernatant were quantified with rm-TNF α as the standard.
For COc1ccc(Cc2cc(C3CCN(C(=O)CCNC(=O)OC(C)(C)C)CC3)nc(N)n2)cc1 [Example 176, 2-amino-4-[1-(3-t-butoxycarbonylaminopropanoyl)-4-piperidinyl]-6-(4-methoxyphenylmethyl)pyrimidine], the inhibition at 30 µM was 60%. Compound COc1ccc(Cc2cc(C3CCN(C(=O)c4cc(Cl)cc(Cl)c4Cl)CC3)nc(N)n2)cc1 [Example 218] has an inhibition at 30 µM of 55%. Work on CCCCCCC(=O)N1CCC(c2nc(N)nc3ccc(OC)cc23)CC1 [Example 103] yielded an inhibition at 30 µM of 44%. COc1ccc(C(=O)N2CCC(c3nc(N)nc4ccccc34)CC2)c(OC)c1 [Example 53] was tested, and the inhibition at 30 µM was 54%. Nc1nc(C2CCN(C(=O)Cc3c(Cl)ccc(Cl)c3Cl)CC2)c2ccccc2n1 [Example 98] gave an inhibition at 30 µM of 43%. Work on COc1ccc(CC(=O)N2CCC(c3cc(CCc4ccccc4)nc(N)n3)CC2)cc1 [Example 261] yielded an inhibition at 30 µM of 42%. With Nc1nc(-c2ccccc2)cc(C2CCN(C(=O)Cc3ccc([N+](=O)[O-])cc3)CC2)n1 [Example 144] the inhibition at 30 µM was 6%. Compound COc1ccc(Cc2cc(C3CCN(C(=O)Cc4ccc(Cl)cc4Cl)CC3)nc(N)n2)cc1 [Example 239] has an inhibition at 30 µM of 99%. Work on CCCCCCCC(=O)N1CCC(c2cc(-c3ccccc3)nc(N)n2)CC1 [Example 136] yielded an inhibition at 30 µM of 48%. Work on CCCCCCCCCC(=O)N1CCC(c2cc(-c3ccc(Cl)cc3)nc(N)n2)CC1 [Example 149] yielded an inhibition at 30 µM of 57%. Work on COc1ccc(CC(=O)N2CCC(c3cc(Cc4ccc(Cl)cc4)nc(N)n3)CC2)cc1 [Example 251] yielded an inhibition at 30 µM of 98%. Nc1nc(C2CCN(C(=O)c3cc(Cl)cc(Cl)c3Cl)CC2)c2ccccc2n1 [Example 73] showed an inhibition at 30 µM of 23%. Nc1nc(C2CCN(C(=O)Cc3ccc(Cl)cc3)CC2)c2ccccc2n1 [Example 82] showed an inhibition at 30 µM of 59%. For Nc1nc(C2CCN(C(=O)c3c(Cl)cc(Cl)cc3Cl)CC2)c2ccccc2n1 [Example 75], the inhibition at 30 µM was 92%. Compound COc1cccc(C(=O)N2CCC(c3nc(N)nc4ccccc34)CC2)c1 [Example 33] has an inhibition at 30 µM of 18%. Work on Nc1nc(-c2ccc(Cl)cc2)cc(C2CCN(C(=O)Cc3ccc([N+](=O)[O-])cc3)CC2)n1 [Example 153] yielded an inhibition at 30 µM of 92%. Work on CCCCCCCCC(=O)N1CCC(c2nc(N)nc3ccccc23)CC1 [Example 22] yielded an inhibition at 30 µM of 64%. Work on COc1ccc(Cc2cc(C3CCN(C(=O)c4ccc([N+](=O)[O-])cc4)CC3)nc(N)n2)cc1 [Example 186] yielded an inhibition at 30 µM of 67%. Compound Nc1nc(-c2ccc(Cl)cc2)cc(C2CCN(C(=O)c3ccccc3)CC2)n1 [Example 6, 2-Amino-4-(1-benzoyl-4-piperidinyl)-6-(4-chlorophenyl)pyrimidine] has an inhibition at 30 µM of 78%. CCCCCCCCCC(=O)N1CCC(c2cc(CCc3ccccc3)nc(N)n2)CC1 [Example 257] showed an inhibition at 30 µM of 90%. With Nc1nc(C2CCN(C(=O)c3c(Cl)ccc(Cl)c3Cl)CC2)c2ccccc2n1 [Example 74] the inhibition at 30 µM was 88%. For CCCCCCCCCC(=O)N1CCC(c2cc(-c3ccc(OC)cc3)nc(N)n2)CC1 [Example 156], the inhibition at 30 µM was 74%. COc1ccc(Cc2cc(C3CCN(C(=O)c4ccc(Cl)cc4)CC3)nc(N)n2)cc1 [Example 183] showed an inhibition at 30 µM of 54%. For COc1ccc(Cc2cc(C3CCN(C(=O)c4ccccc4OC)CC3)nc(N)n2)cc1 [Example 178], the inhibition at 30 µM was 76%. Work on CCCCCCCCC(=O)N1CCC(c2cc(-c3ccccc3)nc(N)n2)CC1 [Example 137] yielded an inhibition at 30 µM of 67%. Compound COc1ccc(Cc2cc(C3CCN(C(=O)c4cccnc4)CC3)nc(N)n2)cc1 [Example 195] has an inhibition at 30 µM of 29%. Work on COc1ccc(Cc2cc(C3CCN(C(=O)c4ccc(Cl)c(Cl)c4)CC3)nc(N)n2)cc1 [Example 207] yielded an inhibition at 30 µM of 76%. Work on Nc1nc(C2CCN(C(=O)OCc3ccccc3)CC2)c2ccccc2n1 [Example 269] yielded an inhibition at 30 µM of 77%. COc1ccc(Cc2cc(C3CCN(C(=O)c4cccc(OC)c4)CC3)nc(N)n2)cc1 [Example 179] was tested, and the inhibition at 30 µM was 82%. With COc1ccc(CC(=O)N2CCC(c3cc(-c4ccc(OC)cc4)nc(N)n3)CC2)cc1 [Example 158] the inhibition at 30 µM was 61%. Compound COc1ccc(Cc2cc(C3CCN(C(=O)Cc4ccccc4Cl)CC3)nc(N)n2)cc1 [Example 225] has an inhibition at 30 µM of 43%. Work on COc1ccc(Cc2cc(C3CCN(C(=O)c4cccc5ccccc45)CC3)nc(N)n2)cc1 [Example 211] yielded an inhibition at 30 µM of 80%. For COc1ccc(CC(=O)N2CCC(c3nc(N)nc4ccccc34)CC2)cc1 [Example 79], the inhibition at 30 µM was -3%. With Nc1nc(C2CCN(C(=O)Cc3ccc([N+](=O)[O-])cc3[N+](=O)[O-])CC2)c2ccccc2n1 [Example 97] the inhibition at 30 µM was 45%. For COc1ccc(Cc2cc(C3CCN(C(=O)c4c(Cl)cc(Cl)cc4Cl)CC3)nc(N)n2)cc1 [Example 220], the inhibition at 30 µM was 75%. In the case of COc1ccc(C(=O)N2CCC(c3nc(N)nc4ccccc34)CC2)c(OC)c1OC [Example 68], the inhibition at 30 µM is reported as 8%. For Nc1nc(C2CCN(C(=O)c3ccccc3Cl)CC2)c2ccccc2n1 [Example 35], the inhibition at 30 µM was 72%. COc1ccccc1C(=O)N1CCC(c2nc(N)nc3ccccc23)CC1 [Example 32] was tested, and the inhibition at 30 µM was 30%. CCCCCCCCCCC(=O)N1CCC(c2cc(Cc3ccc(OC)cc3)nc(N)n2)CC1 [Example 171] showed an inhibition at 30 µM of 13%. With COc1ccc(Cc2cc(C3CCN(C(=O)Cc4cccc(Cl)c4)CC3)nc(N)n2)cc1 [Example 226] the inhibition at 30 µM was 69%. COc1ccc(Cc2cc(C3CCN(S(=O)(=O)Cc4ccccc4)CC3)nc(N)n2)cc1 [Example 277] gave an inhibition at 30 µM of 32%. Work on Nc1nc(C2CCN(C(=O)c3cccc([N+](=O)[O-])c3)CC2)c2ccccc2n1 [Example 39] yielded an inhibition at 30 µM of 12%. COc1ccc(Cc2cc(C3CCN(C(=O)Cc4ccc5c(c4)OCO5)CC3)nc(N)n2)cc1 [Example 243] gave an inhibition at 30 µM of 93%. CCCCCCCCC(=O)N1CCC(c2cc(Cc3ccc(OC)cc3)nc(N)n2)CC1 [Example 169] was tested, and the inhibition at 30 µM was 12%. Work on COc1ccc(Cc2cc(C3CCN(C(=O)Cc4cc(OC)cc(OC)c4)CC3)nc(N)n2)cc1 [Example 238] yielded an inhibition at 30 µM of 96%. For CC(C)(C)C(=O)N1CCC(c2nc(N)nc3ccccc23)CC1 [Example 26], the inhibition at 30 µM was 19%. In the case of NCCCCCCC(=O)N1CCC(c2nc(N)nc3ccccc23)CC1 [Example 284, 2-amino-4-[1-(7-aminoheptanoyl)-4-piperidinyl]quinazoline], the inhibition at 30 µM is reported as 3%. Compound COc1ccc(Cc2cc(C3CCN(C(=O)c4cc(OC)c(OC)c(OC)c4)CC3)nc(N)n2)cc1 [Example 217] has an inhibition at 30 µM of 44%. CCCCCC(=O)N1CCC(c2nc(N)nc3ccccc23)CC1 [Example 19] was tested, and the inhibition at 30 µM was 10%. COc1ccc(CC(=O)N2CCC(c3nc(N)nc4ccc(OC)cc34)CC2)cc1 [Example 120] gave an inhibition at 30 µM of 31%. COc1ccc(Cc2cc(C3CCN(C(=O)Cc4c(Cl)ccc(Cl)c4Cl)CC3)nc(N)n2)cc1 [Example 244] was tested, and the inhibition at 30 µM was 98%. Compound COc1cc(CC(=O)N2CCC(c3nc(N)nc4ccccc34)CC2)cc(OC)c1 [Example 93] has an inhibition at 30 µM of 60%. COc1cccc(CC(=O)N2CCC(c3nc(N)nc4ccccc34)CC2)c1 [Example 78] showed an inhibition at 30 µM of 10%. Compound CCCCCCC(=O)N1CCC(c2cc(Cc3ccc(OC)cc3)nc(N)n2)CC1 [Example 167] has an inhibition at 30 µM of 52%. With COc1ccc(C(=O)N2CCC(c3nc(N)nc4ccc(OC)cc34)CC2)cc1 [Example 110] the inhibition at 30 µM was 21%. For COc1ccc(Cc2cc(C3CCN(C(C)=O)CC3)nc(N)n2)cc1 [Example 162], the inhibition at 30 µM was 61%. For CCC(=O)N1CCC(c2nc(N)nc3ccccc23)CC1 [Example 16], the inhibition at 30 µM was 4%. For COc1ccc(Cc2cc(C3CCN(C(=O)Cc4ccc([N+](=O)[O-])cc4)CC3)nc(N)n2)cc1 [Example 233], the inhibition at 30 µM was 54%. Nc1nc(C2CCN(C(=O)Cc3ccc(Cl)cc3Cl)CC2)c2ccccc2n1 [Example 94] showed an inhibition at 30 µM of 78%. For NCCCCCCCCCCC(=O)N1CCC(c2nc(N)nc3ccccc23)CC1 [Example 286, 2-amino-4-[1-(11-aminoundecanoyl)-4-piperidinyl]quinazoline], the inhibition at 30 µM was 67%. In the case of CCCCCCCCC(=O)N1CCC(c2nc(N)nc3ccc(Cl)cc23)CC1 [Example 128], the inhibition at 30 µM is reported as 79%. COc1ccc(Cc2cc(C3CCN(C(=O)CCCl)CC3)nc(N)n2)cc1 [Example 174] was tested, and the inhibition at 30 µM was 54%. Work on COc1ccc(CC(=O)N2CCC(c3cc(-c4ccccc4)nc(N)n3)CC2)cc1 [Example 142] yielded an inhibition at 30 µM of 55%. With COc1ccc(Cc2cc(C3CCN(C(=O)c4ccccn4)CC3)nc(N)n2)cc1 [Example 194] the inhibition at 30 µM was 9%. COc1ccc(Cc2cc(C3CCN(C(=O)c4cccc(OC)c4OC)CC3)nc(N)n2)cc1 [Example 197] gave an inhibition at 30 µM of 29%. With Nc1nc(C2CCN(C(=O)c3cccnc3)CC2)c2ccccc2n1 [Example 50] the inhibition at 30 µM was 18%. CCCCCCCC(=O)N1CCC(c2cc(-c3ccc(Cl)cc3)nc(N)n2)CC1 [Example 147] was tested, and the inhibition at 30 µM was 55%.
